Earlier results on 1 compound are cited in patent publication US20190343827A1, “DEUTERATED ANALOGS OF TARIQUIDAR” (Izumi Technology, LLC, priority 2018, published 2019).

Data set [1] concerns refractory solid tumors.
The test system of data set [2] is non-small-cell lung cancer. As to conditions: co-administration with paclitaxel or carboplatin.
The conditions of data set [3]: patients with lung, ovarian and cervical cancer.

Structures are written as SMILES.

Turning to `COc1cc2c(cc1OC)CN(CCc1ccc(NC(=O)c3cc(OC)c(OC)cc3NC(=O)c3cnc4ccccc4c3)cc1)CC2` [Tariquidar, N-[2-[[4-[2-(6,7-dimethoxy-3,4-dihydro-1H-isoquinolin-2-yl)ethyl]phenyl]carbamoyl]-4,5-dimethoxyphenyl]quinoline-3-carboxamide], the clinical response result in data set [1] (children and adolescents with refractory solid tumors, 29 patients) was “low”. The “clearance of docetaxel and vinorelbine” value in data set [1] (co-administered with tariquidar, compared to historic data in absence of tariquidar) is listed as “reduced”. In data set [1] (out of 29 patients), the “complete response, number of patients” value is “one” and the “partial response, number of patients” value is “two”. The “study outcome, toxicity” value in data set [2] is listed as “terminated early due to toxicity”. Also, the “docetaxel disposition as a result of tariquidar co-administration” value in data set [3] is given as “No significant differences”.
